Data from ChEMBL document CHEMBL1140427, “Semi-rational design of (north)-methanocarba nucleosides as dual acting A(1) and A(3) adenosine receptor agonists: novel prototypes for cardioprotection” (J Med Chem, 2005).

Key:
Adenosine receptor A3 [1] = target: T1, Adenosine receptor A3 (Rattus norvegicus, UniProt P28647); experiment: Binding affinity to rat adenosine A3 receptor in CHO cells; type: cell-based
T1 sequence (P28647 whole entry): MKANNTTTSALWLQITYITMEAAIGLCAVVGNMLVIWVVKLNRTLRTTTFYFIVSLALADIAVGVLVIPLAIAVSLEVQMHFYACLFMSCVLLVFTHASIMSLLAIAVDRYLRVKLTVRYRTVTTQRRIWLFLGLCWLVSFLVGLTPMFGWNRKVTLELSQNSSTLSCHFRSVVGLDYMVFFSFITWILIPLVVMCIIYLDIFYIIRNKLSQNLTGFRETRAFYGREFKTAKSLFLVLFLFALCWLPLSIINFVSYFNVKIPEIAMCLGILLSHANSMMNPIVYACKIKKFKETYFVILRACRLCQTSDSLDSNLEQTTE

Adenosine receptor A3 [2] = target: T2, Adenosine receptor A3 (Homo sapiens, UniProt P0DMS8); experiment: Binding affinity to human adenosine A3 receptor in CHO cells
T2 sequence (P0DMS8 whole entry): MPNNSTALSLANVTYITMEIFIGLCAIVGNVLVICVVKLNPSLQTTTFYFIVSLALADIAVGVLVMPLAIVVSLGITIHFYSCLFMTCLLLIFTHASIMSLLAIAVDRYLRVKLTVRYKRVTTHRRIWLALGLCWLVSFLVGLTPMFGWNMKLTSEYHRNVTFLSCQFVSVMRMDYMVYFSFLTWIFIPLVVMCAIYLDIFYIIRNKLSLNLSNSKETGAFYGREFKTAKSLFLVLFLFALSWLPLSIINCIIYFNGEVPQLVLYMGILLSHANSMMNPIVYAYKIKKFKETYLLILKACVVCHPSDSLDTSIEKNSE

[3] = target: T3, Adenosine receptor A3 (Homo sapiens) (UniProt P0DMS8); experiment: Maximal agonist effect at human adenosine A3 receptor in CHO cells at 10 uM by the inhibition of forskolin-stimulated cAMP production; type: functional, cell-based; design: scale not given: the % may be the effect or the level left
T3 sequence (whole entry): T2 sequence (P0DMS8 whole entry)

Adenosine receptor A2a = Adenosine receptor A2a (Homo sapiens, UniProt P29274); experiment: Displacement of [3H]R-PIA or [3H]CGS 21680 from human adenosine A2A receptor in CHO cells; type: cell-based
Adenosine receptor A2b = target: T4, Adenosine receptor A2b (Homo sapiens, UniProt P29275); experiment: Agonistic effect at human adenosine A2B receptor in CHO cells; type: functional, cell-based
T4 sequence (P29275 whole entry): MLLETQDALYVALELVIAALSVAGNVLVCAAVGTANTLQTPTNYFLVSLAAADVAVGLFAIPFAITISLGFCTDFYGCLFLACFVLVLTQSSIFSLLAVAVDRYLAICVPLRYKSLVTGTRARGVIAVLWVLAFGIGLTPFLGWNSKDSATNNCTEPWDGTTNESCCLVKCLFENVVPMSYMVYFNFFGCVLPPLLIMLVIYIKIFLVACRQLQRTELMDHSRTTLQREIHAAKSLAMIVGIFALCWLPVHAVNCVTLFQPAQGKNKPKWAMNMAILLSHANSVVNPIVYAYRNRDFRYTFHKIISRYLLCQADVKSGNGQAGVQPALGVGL

Adenosine receptor A1 [4] = target: T5, Adenosine receptor A1 (Homo sapiens, UniProt P30542); experiment: Displacement of [3H]R-PIA or [3H]CGS 21680 from human adenosine A1 receptor in CHO cells; type: cell-based
T5 sequence (P30542 whole entry): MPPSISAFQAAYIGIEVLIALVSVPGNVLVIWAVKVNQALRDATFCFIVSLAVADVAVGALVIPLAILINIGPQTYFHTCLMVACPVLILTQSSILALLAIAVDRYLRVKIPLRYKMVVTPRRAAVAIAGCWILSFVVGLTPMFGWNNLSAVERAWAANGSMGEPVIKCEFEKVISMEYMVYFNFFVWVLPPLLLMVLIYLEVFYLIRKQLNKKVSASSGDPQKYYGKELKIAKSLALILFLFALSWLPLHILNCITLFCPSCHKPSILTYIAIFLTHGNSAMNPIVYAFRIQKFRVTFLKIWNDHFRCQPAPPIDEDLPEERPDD

Adenosine receptor A1 [5] = target: T6, Adenosine receptor A1 (Rattus norvegicus, UniProt P25099); experiment: Binding affinity to rat adenosine A1 receptor in CHO cells
T6 sequence (P25099 whole entry): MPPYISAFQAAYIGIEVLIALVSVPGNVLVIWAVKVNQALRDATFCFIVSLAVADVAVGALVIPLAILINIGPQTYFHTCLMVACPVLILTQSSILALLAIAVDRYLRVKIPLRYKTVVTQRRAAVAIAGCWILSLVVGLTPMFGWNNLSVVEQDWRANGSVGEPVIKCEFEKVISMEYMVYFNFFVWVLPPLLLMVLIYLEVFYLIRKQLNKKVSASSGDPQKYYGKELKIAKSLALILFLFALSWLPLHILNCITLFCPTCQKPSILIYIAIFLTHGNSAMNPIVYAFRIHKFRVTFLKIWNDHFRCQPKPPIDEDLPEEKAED

Adenosine receptor A3 [6] = target: T2, Adenosine receptor A3; experiment: Agonistic effect at human adenosine A3 receptor in CHO cells; type: functional, cell-based
Adenosine receptor A1 [7] = target: T5, Adenosine receptor A1; experiment: Agonistic effect at human adenosine A1 receptor in CHO cells; type: functional, cell-based

Chain of Adenosine receptor A2a (P29274 whole entry): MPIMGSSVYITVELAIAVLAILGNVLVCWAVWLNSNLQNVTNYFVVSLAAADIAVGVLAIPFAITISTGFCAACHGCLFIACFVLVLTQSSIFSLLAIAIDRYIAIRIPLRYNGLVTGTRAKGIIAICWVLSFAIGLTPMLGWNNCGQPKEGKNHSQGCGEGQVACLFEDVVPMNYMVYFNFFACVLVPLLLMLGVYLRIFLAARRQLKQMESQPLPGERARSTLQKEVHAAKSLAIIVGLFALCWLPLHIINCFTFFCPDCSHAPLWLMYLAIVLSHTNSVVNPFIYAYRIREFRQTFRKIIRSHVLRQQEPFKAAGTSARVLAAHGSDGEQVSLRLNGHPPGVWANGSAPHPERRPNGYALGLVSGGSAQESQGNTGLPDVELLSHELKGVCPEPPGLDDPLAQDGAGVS

SMILES | Ki (Adenosine receptor A3 [1]) | Ki (Adenosine receptor A3 [2]) | Activity [3] | Ki (Adenosine receptor A2a) | EC50 (Adenosine receptor A2b) | Ki (Adenosine receptor A1 [4]) | Ki (Adenosine receptor A1 [5]) | EC50 (Adenosine receptor A3 [6]) | EC50 (Adenosine receptor A1 [7])
OC[C@H]1O[C@@H](n2cnc3c(NC4C5CCC4CC5)ncnc32)[C@H](O)[C@@H]1O (stereo partly specified) | 0.229 µM | 0.112 µM | 112% |  |  |  |  |  | 
OC[C@H]1O[C@@H](n2cnc3c(NC4CCCC4)nc(Cl)nc32)[C@H](O)[C@@H]1O |  |  | 0% |  |  |  |  |  | 
CNC(=O)C12C[C@@H]1[C@@H](n1cnc3c(NC4CCCC4)ncnc31)[C@H](O)[C@@H]2O (single isomer, unassigned) | 0.0102 µM | 0.0131 µM | 93% | 6.42 µM | > 10 µM |  |  |  | 
CNC(=O)C12C[C@@H]1[C@@H](n1cnc3c(NC4C5CCC4CC5)nc(Cl)nc31)[C@H](O)[C@@H]2O (single isomer, unassigned) | 0.0096 µM | 0.0146 µM | 92% | > 10 µM | > 10 µM | 0.19 µM |  |  | 
CNC(=O)C12C[C@@H]1[C@@H](n1cnc3c(NC4CCCC4)nc(Cl)nc31)[C@H](O)[C@@H]2O (single isomer, unassigned) |  | 0.0037 µM | 101% | 3.25 µM | > 10 µM | 0.0183 µM | 0.0174 µM | 0.0028 µM | 0.0082 µM
OC[C@H]1O[C@@H](n2cnc3c(NC4CCCC4)ncnc32)[C@H](O)[C@@H]1O [N6-CYCLOPENTYLADENOSINE] |  | 0.24 µM | 72% | 0.462 µM |  |  |  |  | 
